Columns and labels:
[1] = MTT cytotoxicity assay, T47D; settings: human
Description: (§1) All cellular lines were grown at 37° C. and 5% CO2 in supplemented Dulbecco's modified Eagle's medium (DMEM) (Cambrex Co., Barcelona, Spain), containing 10% heat-inactivated fetal bovine serum (FBS) (Cambrex Co., Barcelona, Spain), 2 mM glutamine, penicillin (50 U/ml) and streptomycin (50 mg/ml).
(§2) Aliquots of cell suspensions were dispensed at 100 μl volumes into wells of 96-well tissue culture plates at a density of 10^4 cells/well. […] In each MTT assay, every concentration of the assayed substance was tested in three replicates. The inhibitory effect of the various compounds was calculated as percentage inhibition relative to cells treated with vehicle (0.5% DMSO).

[2] = MTT cytotoxicity assay, HeLa; settings: human
Description: as §1, §2

[3] = MTT cytotoxicity assay, 3T3-L1; settings: mouse
Description: All cellular lines were grown at 37° C. and 5% CO2 in supplemented Dulbecco's modified Eagle's medium (DMEM) (Cambrex Co., Barcelona, Spain), containing 10% heat-inactivated fetal bovine serum (FBS) (Cambrex Co., Barcelona, Spain), 2 mM glutamine, penicillin (50 U/ml) and streptomycin (50 mg/ml). […] MSC were maintained in α-MEM with 15% FBS.
as §2

[4] = test system: adipokines gene expression (IL-6, AdipoQ); experiment: Adipocyte and adipokine gene expression by PCR in 3T3-L1 adipocytes; settings: FIG. 5
Description: 3T3-L1 fibroblasts were grown until confluence (3 days) in DMEM with 10% FBS and antibiotics. Then (day 0), medium was supplemented with 1 μM dexamethasone, IBMX 0.5 mM and 10 μg/ml insulin, to induce differentiation for 2 days. In day 2, the medium was supplemented only with 5 μg/ml insulin for two more days. All mediums used were additionally supplemented with cannabinoids, or rosiglitazone (1 μM) as control, since day 0. In case of RNA extractions, cells were harvested on day 4. […] GAPDH gene was used as houskeeping gene.

[5] = MTT cytotoxicity assay, AGS; settings: human
Description: as §1, §2

3T3-L1 fibroblasts = experiment: 3T3-L1 adipocyte differentiation assay / total triglyceride quantification
Description: The 3T3-L1 preadipocyte cell line was plated at a concentration of 2×10^5 cell/well in 6-well plates for RNA isolations and tygliceride cunatification. 3T3-L1 fibroblasts were grown until confluence (3 days) in DMEM with 10% FBS and antibiotics. Then (day 0), medium was supplemented with 1 μM dexamethasone, IBMX 0.5 mM and 10 μg/ml insulin, to induce differentiation for 2 days. In day 2, the medium was supplemented only with 5 μg/ml insulin for two more days. All mediums used were additionally supplemented with cannabinoids, or rosiglitazone (1 μM) as control, since day 0. […] For trygliceride cuantification, cells were maintained in medium supplemented with cannabinoids until day 12 and refreshed every two days. […] 3T3-L1 fully differentiated adipocytes were washed in PBS and sonicated three times for 5 seconds in a buffer containing 2 M NaCl, 2 mM EDTA and 50 mM sodium phosphate pH 7.4 to release cellular content. Total triglyceride content released was quantified using a commercial Triglyceride Assay kit (Applied BioSystem, Spain) based on a colorimetric reaction and measured by absorbance at 500 nm in a spectrophotometer.

[6] = MTT cytotoxicity assay, HCT116; settings: human
Description: as §1, §2

[7] = test system: bone-marrow derived mesenchimal cells; experiment: Mesenchymal stem cell differentiation to osteoblasts or adipocytes, marker gene expression by QRT-PCR; format: cell-based; settings: human MSC, compounds in differentiation medium, FIG. 7
Description: Cells were plated at 500 cell/cm^2 on P6 plates (TPP, Trasadingen, Switzerland) containing α-MEM medium with 10% FBS. When the cell cultures were 80-90% confluent, the medium was supplemented with 10^−8 M dexamethasone, 0.2 mM ascorbic acid and 10 mM β-glycerolphosphate to induce differentiation to osteoblasts, and 5×10^−7 M dexamethasone, 0.5 mM isobutylmethylxanthine and […] indometacin to induce differentiation to adipocytes. All inducers were from Sigma-Aldrich. MSC (mesenchymal stem cells) were grown in an osteogenic or adipogenic medium for 21 days, together with a corresponding control (in the absence of differentiation inducers). Cell samples were collected at day 13. […] Expression values of nuclear ribosomal DNA were used to normalise the obtained values. Adipocyte and osteoblasts were obtained by differentiation of human mesenchymal stem cells grown in adipogenic or osteoblastogenic specific differentiation culture mediums. […] Bone forming osteoblasts and fat forming adipocytes are both derived from mesenchymal stem cells (MSCs). An increase in PPARg activity due to treatment with the antidiabetic thiazolidinedione (TZD) drug rosiglitazone results in a decreased number of osteoblasts and an increased number of adipocytes.

[8] = MTT cytotoxicity assay, MDA; settings: human
Description: as §1, §2

3T3-L1 pre-adipocytes = experiment: Glucose uptake (2-deoxy-D-glucose transport); format: cell-based, mouse; settings: FIG. 6; for glucose uptake: presence and absence of insulin (1.74 μM)
Description: For assays of 2-deoxy-D-glucose transport 3T3-L1 pre-adipocytes cultured in 12-well plates were deprived of serum by incubation for 2 hours. […] Glucose transport was initiated by the addition of 50 μl of KRH buffer containing 0.5 mM 2-deoxy-D-[1, 2-3H]glucose (0.25 μCi) to each well; after 5 minutes, transport was terminated by washing the cells 3 times with ice-cold KRH buffer. The cells were solubilized, and the incorporated radioactivity was measured by liquid scintillation counting.
Data are given as means with deviation standard error bars of three replicates. […]

[9] = test system: T47D, human breast adenocarcinoma; experiment: MTT cytotoxicity assay, T47D; settings: read-out: IC50 values of MTT cytotoxicity assay; T47D, 24 hours of treatment
Description: as §1, §2

[10] = T47D cells (human breast adenocarcinoma)
[11] = HeLa cells (human cervical carcinoma)
[12] = 3T3-L1 cells (mouse embryonic fibroblast, adipose-like)
[13] = AGS cells (human gastric adenocarcinoma)
[14] = HCT116 cells (human colon carcinoma)
[15] = MDA cells (human breast cancer)

Question: Which IC50 at 24 h [1] does the source give for `CCCCCC1=CC(=O)C(C/C=C(\C)CCC=C(C)C)=C(O)C1=O` [CBG-Q, CBG Hydroxyquinone] here?
Answer: Its IC50 at 24 h is 44 µM.

Question: What about the IC50 at 24 h [2] of the same compound?
Answer: Its IC50 at 24 h is greater than 50 µM.

Question: What about the IC50 at 24 h [3] of the same compound?
Answer: The IC50 at 24 h was 49 µM.

Question: What about the AdipoQ gene expression [4] of the same compound?
Answer: The AdipoQ gene expression was “increment on AdipoQ”.

Question: What about the IL-6 gene expression [4] of the same compound?
Answer: The IL-6 gene expression was “reduction of the pro-inflammatory cytokine IL-6”.

Question: And the IC50 at 24 h [5]?
Answer: Its IC50 at 24 h is 48 µM.

Question: What about the “differentiation of fibroblasts to adipocytes (total triglyceride), in words” value (3T3-L1 fibroblasts; 3T3-L1, FIGS. 4 and 8C) of the same compound?
Answer: The value was “stimulate the differentiation of fibroblasts to adipocytes in a stronger way than CBG”.

Question: What about the IC50 at 24 h [6] of the same compound?
Answer: Its IC50 at 24 h is 47 µM.

Question: What about the “expression of marker genes in adipocytes and osteoblasts” value [7] of the same compound?
Answer: Its value is “no significant alteration in expression of marker genes”.

Question: What about the IC50 at 24 h [8] of the same compound?
Answer: The IC50 at 24 h was 49 µM.

Question: And the “glucose uptake compared with CBG” value (3T3-L1 pre-adipocytes; absence of insulin)?
Answer: Its value is “higher effect than CBG”.

Question: What about the glucose uptake (3T3-L1 pre-adipocytes) of the same compound?
Answer: The glucose uptake was “able to increment the glucosa uptake both in presence and absence of insulin”.

Question: Which IC50 [9] does the source give for `C=C(C)C1CCC(C)=C[C@H]1C1=C(O)C(=O)C(CCCCC)=CC1=O` (some centres unmarked) [CBD-Q, CBD-Quinone] here?
Answer: The IC50 was 17.1 µM.

Question: What about the IC50 at 24 h ([1]; IC50 values of MTT cytotoxicity assay, T47D, 24 hours of treatment) of the same compound?
Answer: The IC50 at 24 h was 20 µM.

Question: What about the IC50 at 24 h [2] of the same compound?
Answer: The IC50 at 24 h was 40.5 µM.

Question: And the IC50 at 24 h [3]?
Answer: The IC50 at 24 h was 12 µM.

Question: What about the IC50 at 24 h [5] of the same compound?
Answer: The IC50 at 24 h was 7.44 µM.

Question: What about the “cytotoxic effect in adipocyte differentiation assay, concentration” value (3T3-L1 fibroblasts; 3T3-L1, FIG. 8C, lacking bar) of the same compound?
Answer: The value was “higher than 1 μM”.

Question: What about the IC50 at 24 h [6] of the same compound?
Answer: Its IC50 at 24 h is 9.8 µM.

Question: And the IC50 at 24 h [8]?
Answer: Its IC50 at 24 h is 10.1 µM.

Question: With `C=C(C)[C@@H]1CCC(C)=C[C@H]1c1c(O)cc(CCCCC)cc1O` [CBD, cannabidiol] as the compound, how does the IC50 at 24 h [1, 10] read?
Answer: The IC50 at 24 h was 35 µM.

Question: What about the IC50 at 24 h [2, 11] of the same compound?
Answer: Its IC50 at 24 h is greater than 50 µM.

Question: And the IC50 at 24 h [3, 12]?
Answer: Its IC50 at 24 h is 30 µM.

Question: What about the IC50 at 24 h [5, 13] of the same compound?
Answer: The IC50 at 24 h was 25 µM.

Question: What about the IC50 at 24 h [6, 14] of the same compound?
Answer: The IC50 at 24 h was greater than 50 µM.

Question: And the IC50 at 24 h [8, 15]?
Answer: Its IC50 at 24 h is greater than 50 µM.

Question: What does the source list for `CCCCCc1cc(O)c(C/C=C(\C)CCC=C(C)C)c(O)c1` [CBG, cannabigerol]?
Answer: IC50 at 24 h [1, 10]: 47 µM; IC50 at 24 h [2, 11]: > 50 µM; IC50 at 24 h [3, 12]: 42.2 µM; AdipoQ gene expression [4]: increment on AdipoQ; IL-6 gene expression [4]: reduction of the pro-inflammatory cytokine IL-6; IC50 at 24 h [5, 13]: > 50 µM; IC50 at 24 h [6, 14]: > 50 µM; IC50 at 24 h [8, 15]: > 50 µM; glucose uptake (3T3-L1 pre-adipocytes): able to increment the glucosa uptake both in presence and absence of insulin

Source: patent publication US8772349B2, “Cannabinoid quinone derivatives” (Vivacell Biotechnology Espana, S.L., priority 2010, dated 2014)
